Measurements published in ChEMBL document CHEMBL1129875, “SYNTHESIS AND ANTISTAPHYLOCOCCAL ACTIVITY OF NEMATOPHIN AND ITS ANALOGS” (1997).
≈ marks a conversion by molar mass, not a printed value.

tested on: Staphylococcus aureus; experiment: Minimum inhibitory concentration required to inhibit Staphylococcus aureus ATCC 29213 cell growth; type: functional

| Compound | MIC [µg/mL] |
| --- | --- |
| CCC(C)C(O)C(=O)NCCc1c[nH]c2ccccc12 (stereo unspecified) | > 100 |
| CC(=O)C(=O)NCCc1c[nH]c2ccccc12 | 100 (≈ 434 µM) |
| CCC(C)C(=O)C(=O)OCCc1c[nH]c2ccccc12 (stereo unspecified) | 25 (≈ 91.5 µM) |
| CCC(C)/C(=N\OC)C(=O)NCCc1c[nH]c2ccccc12 (stereo unspecified) | > 100 |
| CCC(=O)C(=O)NCCc1c[nH]c2ccccc12 | 100 (≈ 409 µM) |

Continued, values first:

| MIC [µg/mL] | Compound |
| --- | --- |
| 0.7 (≈ 2.57 µM) | CCC(C)C(=O)C(=O)NCCc1c[nH]c2ccccc12 (stereo unspecified) |
| 3 (≈ 9.92 µM) | CCC(C)C(=O)C(=O)NCCc1c[nH]c2ccc(OC)cc12 (stereo unspecified) |
| 0.7 (≈ 2.57 µM) | CC(C)CC(=O)C(=O)NCCc1c[nH]c2ccccc12 |
| 0.7 (≈ 2.41 µM) | CCC(C)C(=O)C(=O)NCCc1c[nH]c2cc(F)ccc12 (stereo unspecified) |
| 3 (≈ 10.5 µM) | CCC(C)C(=O)C(=O)NCCc1c[nH]c2ccc(C)cc12 (stereo unspecified) |
| 3 (≈ 11.6 µM) | CC(C)C(=O)C(=O)NCCc1c[nH]c2ccccc12 |
